Test results as given in US20190022225A1, “PROTOCOL FOR INCREASING LIFE EXPECTANCY IN A TEST SUBJECT” (Mayo Foundation for Medical Education and Research, priority 2015, published 2019).

Legend:
Type in all cases: in vivo, mouse
[1] = system: LDLR−/− mice fed a HFD; assay: Atherosclerosis model, LDLR-/- mice on high fat diet treated with Nutlin-3A
Source text: Schematics of two atherosclerosis mouse models are presented in FIGS. 43A-B. The study illustrated in FIG. 43A assessed the extent to which clearance of senescent cells from plaques in LDLR^−/− mice with Nutlin-3A reduces plaque load. Two groups of LDLR^−/− mice (10 weeks) are fed a high fat diet (HFD) (Harlan Teklad TD.88137) having 42% calories from fat, beginning at Week 0 and throughout the study. Two groups of LDLR^−/− mice (10 weeks) are fed normal chow (−HFD). From weeks 0-2, one group of HFD mice and −HFD mice are treated with Nutlin-3A (25 mg/kg, intraperitoneally). One treatment cycle is 14 days treatment, 14 days off. Vehicle is administered to one group of HFD mice and one group of −HFD mice. At week 4 (timepoint 1), one group of mice are sacrificed and to assess presence of senescent cells in the plaques. For the some of the remaining mice, Nutlin-3A and vehicle administration is repeated from weeks 4-6. At week 8 (timepoint 2), the mice are sacrificed and to assess presence of senescent cells in the plaques. The remaining mice are treated with Nutlin-3A or vehicle from weeks 8-10. At week 12 (timepoint 3), the mice are sacrificed and to assess the level of plaque and the number of senescent cells in the plaques.
Plasma lipid levels were measured in LDLR^−/− mice fed a HFD and treated with Nutlin-3A or vehicle at timepoint 1 as compared with mice fed a −HFD (n=3 per group). Plasma was collected mid-afternoon and analyzed for circulating lipids and lipoproteins.
At the end of timepoint 1, LDLR^−/− mice fed a HFD and treated with Nutlin-3A or vehicle were sacrificed (n=3, all groups), and the aortic arches were dissected for RT-PCR analysis of SASP factors and senescent cell markers. Values were normalized to GAPDH and expressed as fold-change versus age-matched, vehicle-treated LDLR^−/− mice on a normal diet.
At the end of timepoint 2, LDLR^−/− mice fed a HFD and treated with Nutlin-3A or vehicle (n=3 for all groups) were sacrificed, and aortic arches were dissected for RT-PCR analysis of SASP factors and senescent cell markers. Values were normalized to GAPDH and expressed as fold-change versus age-matched, vehicle-treated LDLR^−/− mice on a normal diet.
At the end of timepoint 3, LDLR^−/− mice fed a HFD and treated with Nutlin-3A or vehicle (n=3 for all groups) were sacrificed, and aortas were dissected and stained with Sudan IV to detect the presence of lipid. Body composition of the mice was analyzed by MRI, and circulating blood cells were counted by Hemavet. […] As shown in FIGS. 48A-B, the platelet and lymphocyte counts were equivalent between the Nutlin-3A and vehicle treated mice.

[2] = system: p16-3MR mice fed a high fat diet; assay: High fat feeding-induced senescence in p16-3MR mice, SA-β-Gal staining of adipose tissue; conditions: 25 mg/kg daily for five consecutive days; p=<0.004
Experimental: Groups of p16-3MR mice (n=6) were fed a high fat diet (60% fat) for four months mice or a regular chow diet. The presence of senescence cells was determined by measuring luminescence (i.e., p16 positive cells). […] Animals were then treated with ganciclovir or vehicle to determine if removal of senescent cells reduced the presence of senescent cells in adipose tissue. Groups of animals were treated with ganciclovir or vehicle. Ganciclovir (25 mg/kg) was administered daily for five consecutive days. The presence of senescent cells in perirenal, epididymal, or subcutaneous inguinal adipose tissue was detected by SA-β-Gal staining. Data were analyzed by ANOVA.

[3] = system: LDLR−/−/3MR double transgenic mice; assay: Atherosclerosis model, LDLR-/-/3MR mice, 100 day ganciclovir treatment period
Experimental: The impact of clearance of senescent cells on the stability and size of mature atherosclerotic plaques was studied in LDLR^−/− MR double transgenic mice. From 10 weeks of age, LDLR^−/− MR double transgenic mice (10 weeks) and LDLR^−/− single transgenic mice (control) were fed a high fat diet (Harlan Teklad TD.88137) having 42% calories from fat beginning at Week 0 until Week 12.5, when the mice were switched to normal chow diet. Both groups of mice were treated with ganciclovir from week 12.5 over the next 100 days, with each treatment cycle comprising 5 days of ganciclovir (25 mg/kg intraperitoneally daily) and 14 days off. At the end of the 100 day treatment period, the mice were sacrificed, plasma and tissues were collected, and atherosclerosis was quantitated. Descending aortas were dissected and stained with Sudan IV to visualize the plaque lipids. […] Plaques from ganciclovir-treated LDLR^−/− control and LDLR^−/− MR mice (see dashed circled plaques in FIGS. 55A-B, respectively) were harvested and cut into cross-sections and stained with […] the general architecture of the atherosclerotic plaques. “#” indicates fat located on the outside of the aorta (see FIG. 55A). The plaques marked with an “*” and “*” in FIGS. 55A and B, respectively, are shown as stained cross-sections in FIGS. 55B and D, respectively. […] The plaque from the control mice has identifiable “lipid pockets” accumulating within. […] Disruption or tear in the cap of a lipid-rich plaque is a trigger for coronary events through exposure of plaque thrombogenic components to platelets and clotting components of the blood. Plaques that grow more rapidly as a result of rapid lipid deposition and have thin fibrin caps are prone to rupture. Slowly growing plaques with mature fibrin caps tend to stabilize and are not prone to rupture. Taken together, these experiments indicate that removal of senescent cells may affect atherosclerotic plaque architecture and have a stabilizing effect.

COc1ccc(C2=N[C@@H](c3ccc(Cl)cc3)[C@@H](c3ccc(Cl)cc3)N2C(=O)N2CCNC(=O)C2)c(OC(C)C)c1 [Nutlin-3a]
expression of SASP factors and senescent cell markers in aortic arch ([1]; after 1 treatment cycle (25 mg/kg ip, 14 days on, 14 days off)): reduced expression of several SASP factors and senescent cell markers
expression of SASP factors and senescent cell markers in aortic arch ([1]; multiple treatment cycles (timepoint 2)): reduced expression of most markers
platelet and lymphocyte counts versus vehicle ([1]; timepoint 3): equivalent
mass and body fat composition ([1]; timepoint 3, HFD): decreased mass and body fat composition
reduction of plaques in the descending aorta ([1]; timepoint 3, three treatment cycles, Sudan IV staining): ~45%

Nc1nc(O)c2ncn(COC(CO)CO)c2n1 [ganciclovir]
presence of senescent cells in epididymal fat (SA-β-Gal) [2]: significant reduction
% of the aorta covered in plaques ([3]; area of Sudan IV staining, versus LDLR−/− control mice): significantly lower
atherosclerotic plaques in descending aorta (Sudan IV staining) ([3]; cycles of 5 days 25 mg/kg ip daily, 14 days off, 100 days): fewer atherosclerotic plaques with less intense staining
plaque morphology ([3]; stained cross-sections): presence of a thick fibrin cap and the absence of lipid pockets
